Measurements as given in publication PMC10418426, “A Comprehensive Technology Platform for the Rapid Discovery of Peptide Inhibitors against SARS-CoV-2 Pseudovirus Infection” (International Journal of Molecular Sciences, 2023).
Starred links: 1 amine or outer side, 2 acyl side, 3 side chain; linkers in the order of their positions; H or OH if unused. Positions of bridges follow the written chain, without caps; N, C: chain ends. Residues, ends and D or L forms follow the SMILES beside them. mXylylene = c1cc(C[*:1])cc(C[*:2])c1

Target: T1, Wuhan variant RBD-Fc / ACE2 interaction (Homo sapiens, UniProt Q9BYF1)
T1 construct: purchased RayBiotech
Test: biochemical
Settings: read-out: percentage of inhibition of RBD binding to ACE2

SMILES: C[C@@H](O)[C@@H]1NC(=O)[C@@H]2CCCN2C(=O)[C@H](CCC(N)=O)NC(=O)[C@@H](N)CSCc2cccc(c2)CSC[C@@H](C(N)=O)NC(=O)[C@H](CCC(N)=O)NC(=O)[C@H](Cc2c[nH]c3ccccc23)NC(=O)CNC(=O)[C@H](CCCCN)NC(=O)CNC(=O)[C@H](CC(N)=O)NC1=O [c9_05] (H-CQPTNGKGWQC-NH2; linker 1-11 via mXylylene)
- inhibition at 100 µM: 78%
